According to PMC2248166, “Quantitative peptide binding motifs for 19 human and mouse MHC class I molecules derived using positional scanning combinatorial peptide libraries” (Immunome Research, 2008):
pIC50: −log10 of the molar value. Where a SMILES comes first, the peptide text is derived from it.

Target: HLA B*0801 (Homo sapiens, UniProt P01889, A93T/A95T/D138N/E176V/E187T/K202T/Q94N/R180D/S35A/V36M/Y33D/Y91F)
Assay: biochemical
Type: binding

Compound | pIC50
CC[C@H](C)[C@H](NC(=O)[C@@H](N)CS)C(=O)N[C@H](C(=O)N[C@@H](CC(N)=O)C(=O)N[C@@H](CCCCN)C(=O)N[C@@H](Cc1ccccc1)C(=O)N[C@@H](CCSC)C(=O)N[C@@H](CO)C(=O)N[C@@H](Cc1ccccc1)C(=O)O)C(C)C [3102.0620] (H-CIVNKFMSF-OH) | 7.22
CSCC[C@H](NC(=O)CNC(=O)[C@@H](N)CO)C(=O)N[C@H](C(=O)N[C@@H](Cc1ccccc1)C(=O)N[C@H](C(=O)N[C@@H](CO)C(=O)N1CCC[C@H]1C(=O)N[C@H](C(=O)O)C(C)C)[C@@H](C)O)C(C)C [3102.0762] (H-SGMVFTSPV-OH) | 7.11
CC(C)C[C@H](NC(=O)[C@H](CO)NC(=O)[C@@H]1CCCN1C(=O)[C@H](CCCNC(=N)N)NC(=O)[C@H](CCCCN)NC(=O)[C@H](CO)NC(=O)[C@H](CC(C)C)NC(=O)[C@H](CC(C)C)NC(=O)[C@@H](N)C(C)C)C(=O)O [3102.0634] (H-VLLSKRPSL-OH) | 7.11
CC[C@H](C)[C@H](NC(=O)[C@H](CC(C)C)NC(=O)[C@@H](N)CCSC)C(=O)N[C@@H](CC(C)C)C(=O)N[C@@H](CC(N)=O)C(=O)N[C@@H](Cc1ccccc1)C(=O)N[C@@H](CS)C(=O)N[C@@H](CCCCN)C(=O)N[C@@H](CC(C)C)C(=O)O [3102.0702] (H-MLILNFCKL-OH) | 8.41
CC[C@H](C)[C@H](NC(=O)[C@@H](N)CO)C(=O)N[C@@H](CC(N)=O)C(=O)N[C@H](C(=O)N[C@@H](CCCCN)C(=O)N[C@@H](Cc1c[nH]cn1)C(=O)N[C@H](C(=O)N[C@@H](CO)C(=O)N[C@H](C(=O)O)C(C)C)[C@@H](C)O)C(C)C [3102.0630] (H-SINVKHTSV-OH) | 7.89
CC(C)C[C@H](NC(=O)[C@H](Cc1ccccc1)NC(=O)[C@H](Cc1ccc(O)cc1)NC(=O)[C@H](CC(C)C)NC(=O)[C@H](CCCNC(=N)N)NC(=O)[C@H](CCC(N)=O)NC(=O)[C@H](CC(C)C)NC(=O)[C@H](Cc1ccccc1)NC(=O)[C@@H](N)Cc1ccccc1)C(=O)O [3102.0589] (H-FFLQRLYFL-OH) | 8.17
CC[C@H](C)[C@H](NC(=O)[C@@H](NC(=O)[C@H](C)N)[C@@H](C)O)C(=O)N[C@@H](CCC(N)=O)C(=O)N[C@@H](CCCNC(=N)N)C(=O)N[C@@H](Cc1ccccc1)C(=O)N[C@@H](CO)C(=O)N[C@@H](CO)C(=O)N[C@@H](CC(C)C)C(=O)O [3102.0756] (H-ATIQRFSSL-OH) | 8.48
CC[C@H](C)[C@H](NC(=O)[C@@H](N)Cc1ccccc1)C(=O)N[C@@H](CCCCN)C(=O)N[C@@H](CCC(N)=O)C(=O)NCC(=O)N[C@@H](Cc1ccccc1)C(=O)N[C@@H](CC(N)=O)C(=O)N[C@@H](CC(N)=O)C(=O)N[C@@H](CC(C)C)C(=O)O [3102.0781] (H-FIKQGFNNL-OH) | 9.04
CC[C@H](C)[C@H](NC(=O)[C@H](CCC(=O)O)NC(=O)[C@H](CCCNC(=N)N)NC(=O)[C@H](CC(C)C)NC(=O)[C@@H](N)CCC(=O)O)C(=O)N[C@@H](Cc1ccccc1)C(=O)N[C@@H](CCCNC(=N)N)C(=O)N[C@@H](CCCNC(=N)N)C(=O)N[C@@H](CC(C)C)C(=O)O [3102.0772] (H-ELREIFRRL-OH) | 7.57
CC[C@H](C)[C@H](NC(=O)[C@H](CO)NC(=O)[C@@H](NC(=O)[C@@H](NC(=O)[C@H](Cc1c[nH]c2ccccc12)NC(=O)[C@H](CCCCN)NC(=O)[C@H](CCSC)NC(=O)[C@@H](N)CCSC)[C@@H](C)CC)[C@@H](C)CC)C(=O)N[C@@H](CC(C)C)C(=O)O [3102.0616] (H-MMKWIISIL-OH) | 8.89
CSCC[C@H](N)C(=O)N[C@@H](Cc1ccc(O)cc1)C(=O)N[C@@H](CCCCN)C(=O)N[C@@H](CO)C(=O)N[C@@H](CCCNC(=N)N)C(=O)N[C@H](C(=O)N[C@@H](CCC(=O)O)C(=O)N[C@@H](CCCNC(=N)N)C(=O)N[C@H](C(=O)O)C(C)C)C(C)C [3102.0607] (H-MYKSRVERV-OH) | 7.33
CSCC[C@H](NC(=O)[C@H](CCCNC(=N)N)NC(=O)[C@H](Cc1ccccc1)NC(=O)[C@@H]1CCCN1C(=O)[C@H](CCSC)NC(=O)[C@H](CCCCN)NC(=O)[C@H](CC(C)C)NC(=O)[C@@H](N)CC(C)C)C(=O)N[C@H](C(=O)O)C(C)C [3102.0749] (H-LLKMPFRMV-OH) | 8.15
CC[C@H](C)[C@H](NC(=O)[C@H](Cc1ccc(O)cc1)NC(=O)[C@@H](NC(=O)[C@@H](N)CO)C(C)C)C(=O)N[C@@H](CCCNC(=N)N)C(=O)N1CCC[C@H]1C(=O)N[C@H](C(=O)N[C@@H](CO)C(=O)N[C@@H](CC(C)C)C(=O)O)[C@@H](C)O [3102.0627] (H-SVYIRPTSL-OH) | 7.96
CC(C)C[C@H](NC(=O)[C@H](Cc1ccc(O)cc1)NC(=O)[C@@H](NC(=O)[C@H](Cc1ccccc1)NC(=O)[C@H](CCCCN)NC(=O)[C@H](CC(C)C)NC(=O)[C@H](CC(C)C)NC(=O)[C@H](C)NC(=O)[C@@H](N)Cc1ccccc1)[C@@H](C)O)C(=O)O [3102.0745] (H-FALLKFTYL-OH) | 8.80
CSCC[C@H](NC(=O)[C@H](CCC(N)=O)NC(=O)[C@H](CCCCN)NC(=O)[C@@H](NC(=O)[C@H](CCC(N)=O)NC(=O)[C@@H]1CCCN1C(=O)[C@@H](N)CC(N)=O)[C@@H](C)O)C(=O)N[C@@H](C)C(=O)N[C@@H](Cc1ccccc1)C(=O)O [3102.0698] (H-NPQTKQMAF-OH) | 7.85
CC[C@H](C)[C@H](NC(=O)[C@H](Cc1ccc(O)cc1)NC(=O)[C@H](C)NC(=O)[C@@H]1CCCN1C(=O)[C@@H](N)CCSC)C(=O)N[C@@H](CCCNC(=N)N)C(=O)N[C@@H](CC(N)=O)C(=O)N[C@H](C(=O)N[C@@H](CC(C)C)C(=O)O)[C@@H](C)O [3102.0553] | 8.85
CC[C@H](C)[C@H](NC(=O)[C@H](CCCCN)NC(=O)[C@H](CC(C)C)NC(=O)[C@@H](N)Cc1ccccc1)C(=O)N[C@@H](CCCCN)C(=O)N[C@H](C(=O)N[C@H](C(=O)N[C@@H](C)C(=O)N[C@@H](C)C(=O)O)[C@@H](C)O)C(C)C [3102.0685] (H-FLKIKVTAA-OH) | 7.82
CC[C@H](C)[C@H](NC(=O)[C@H](CCCNC(=N)N)NC(=O)[C@@H](NC(=O)[C@H](CCCCN)NC(=O)[C@H](CC(C)C)NC(=O)[C@@H](N)CCCNC(=N)N)[C@@H](C)O)C(=O)N[C@@H](CCCNC(=N)N)C(=O)N[C@@H](CC(N)=O)C(=O)N[C@@H](CC(C)C)C(=O)O [3102.0740] (H-RLKTRIRNL-OH) | 9.16
CC[C@H](C)[C@H](NC(=O)[C@@H](NC(=O)[C@H](CC(C)C)NC(=O)[C@H](Cc1ccccc1)NC(=O)[C@H](Cc1c[nH]cn1)NC(=O)[C@@H](NC(=O)[C@@H](NC(=O)[C@H](CCCCN)NC(=O)[C@@H](N)CCC(=O)O)[C@@H](C)CC)[C@@H](C)CC)[C@@H](C)O)C(=O)O [3102.0618] (H-EKIIHFLTI-OH) | 8.30
CC(C)C[C@H](NC(=O)[C@H](CC(N)=O)NC(=O)[C@H](Cc1ccc(O)cc1)NC(=O)[C@H](Cc1ccccc1)NC(=O)[C@H](Cc1c[nH]cn1)NC(=O)[C@H](CC(=O)O)NC(=O)[C@H](CCCNC(=N)N)NC(=O)[C@H](CC(C)C)NC(=O)[C@@H](N)Cc1ccc(O)cc1)C(=O)O [3102.0548] (H-YLRDHFYNL-OH) | 8.08
CSCC[C@H](NC(=O)[C@H](CC(C)C)NC(=O)[C@H](CCCNC(=N)N)NC(=O)[C@H](CCCCN)NC(=O)[C@H](CCSC)NC(=O)[C@H](CCSC)NC(=O)[C@@H](N)CCSC)C(=O)N[C@@H](Cc1ccccc1)C(=O)N[C@@H](CCC(=O)O)C(=O)O [3102.0672] (H-MMMKRLMFE-OH) | 7.12
CC(C)C[C@H](NC(=O)[C@@H](NC(=O)[C@H](CC(C)C)NC(=O)[C@H](CCCCN)NC(=O)[C@H](CCCNC(=N)N)NC(=O)[C@H](Cc1ccccc1)NC(=O)[C@H](Cc1ccccc1)NC(=O)[C@@H]1CCCN1C(=O)[C@@H](N)Cc1ccc(O)cc1)C(C)C)C(=O)O [3102.0643] (H-YPFFRKLVL-OH) | 8.23
CC[C@H](C)[C@H](NC(=O)[C@H](CC(C)C)NC(=O)[C@@H](N)CO)C(=O)N1CCC[C@H]1C(=O)N[C@@H](CCCNC(=N)N)C(=O)N[C@@H](CC(C)C)C(=O)N[C@H](C(=O)N[C@@H](CC(=O)O)C(=O)N[C@@H](Cc1ccccc1)C(=O)O)C(C)C [3102.0730] (H-SLIPRLVDF-OH) | 7.89
N=C(N)NCCC[C@H](NC(=O)[C@H](Cc1ccc(O)cc1)NC(=O)[C@H](CCCNC(=N)N)NC(=O)[C@H](CCCNC(=N)N)NC(=O)[C@H](CO)NC(=O)[C@@H](N)CO)C(=O)N[C@@H](CS)C(=O)N[C@@H](CO)C(=O)N[C@@H](Cc1ccccc1)C(=O)O [3102.1158] (H-SSRRYRCSF-OH) | 7.92
CC(C)C[C@H](NC(=O)[C@@H](N)CC(N)=O)C(=O)N[C@@H](CCCNC(=N)N)C(=O)N[C@@H](CS)C(=O)N[C@@H](Cc1c[nH]cn1)C(=O)N[C@@H](CO)C(=O)N[C@@H](C)C(=O)N[C@@H](Cc1c[nH]cn1)C(=O)N[C@H](C(=O)O)C(C)C [3102.0700] (H-NLRCHSAHV-OH) | 8.92
CC(C)C[C@H](NC(=O)[C@H](CCCNC(=N)N)NC(=O)[C@@H](NC(=O)[C@H](Cc1ccccc1)NC(=O)[C@H](Cc1c[nH]cn1)NC(=O)CNC(=O)[C@H](CCCCN)NC(=O)[C@H](CC(N)=O)NC(=O)[C@@H](N)Cc1ccccc1)[C@@H](C)O)C(=O)O [3102.0610] (H-FNKGHFTRL-OH) | 7.80
CC[C@H](C)[C@H](NC(=O)[C@H](CC(C)C)NC(=O)[C@@H](N)CC(N)=O)C(=O)N[C@H](C(=O)N[C@@H](Cc1c[nH]cn1)C(=O)N[C@H](C(=O)N[C@@H](C)C(=O)N[C@@H](C)C(=O)N[C@@H](CC(C)C)C(=O)O)[C@@H](C)O)[C@@H](C)CC [3102.0785] (H-NLIIHTAAL-OH) | 8.80
CSCC[C@H](NC(=O)[C@H](CCCNC(=N)N)NC(=O)[C@H](CCCCN)NC(=O)[C@H](CO)NC(=O)[C@H](CCCCN)NC(=O)[C@H](C)NC(=O)[C@@H](N)Cc1ccc(O)cc1)C(=O)N[C@@H](C)C(=O)N[C@@H](CCC(=O)O)C(=O)O [3102.0786] (H-YAKSKRMAE-OH) | 7.51
CC[C@H](C)[C@H](NC(=O)[C@H](CCCCN)NC(=O)[C@@H]1CCCN1C(=O)[C@@H](N)CCC(=O)O)C(=O)N[C@@H](CO)C(=O)N[C@@H](CC(C)C)C(=O)N[C@@H](CC(C)C)C(=O)N1CCC[C@H]1C(=O)N[C@@H](CC(C)C)C(=O)O [3102.0719] (H-EPKISLLPL-OH) | 8.07
CC(C)[C@H](NC(=O)[C@H](Cc1ccccc1)NC(=O)[C@H](CS)NC(=O)[C@@H](NC(=O)[C@H](CCCCN)NC(=O)[C@H](CCCCN)NC(=O)[C@H](CCCCN)NC(=O)[C@H](CO)NC(=O)[C@@H](N)Cc1ccccc1)C(C)C)C(=O)O [3102.0556] (H-FSKKKVCFV-OH) | 8.22
